Experimental data as given in article PMC6768323, “Adverse Maternal, Fetal, and Postnatal Effects of Hexafluoropropylene Oxide Dimer Acid (GenX) from Oral Gestational Exposure in Sprague-Dawley Rats” (Environmental Health Perspectives, 2019).

Legend:
[1] = female rat, oral 10-30 mg/kg; ref Gannon et al. 2016; cited from earlier work
[2] = target: T1, human GR (Homo sapiens, UniProt P04150); test: GR transcriptional activation, CV-1 cells; format: cell-based
T1 construct: expressed in transfected cells; host or cells: CV-1 cells (ATCC CCL-70), adenoviral transduction
T1 sequence (P04150 1-777): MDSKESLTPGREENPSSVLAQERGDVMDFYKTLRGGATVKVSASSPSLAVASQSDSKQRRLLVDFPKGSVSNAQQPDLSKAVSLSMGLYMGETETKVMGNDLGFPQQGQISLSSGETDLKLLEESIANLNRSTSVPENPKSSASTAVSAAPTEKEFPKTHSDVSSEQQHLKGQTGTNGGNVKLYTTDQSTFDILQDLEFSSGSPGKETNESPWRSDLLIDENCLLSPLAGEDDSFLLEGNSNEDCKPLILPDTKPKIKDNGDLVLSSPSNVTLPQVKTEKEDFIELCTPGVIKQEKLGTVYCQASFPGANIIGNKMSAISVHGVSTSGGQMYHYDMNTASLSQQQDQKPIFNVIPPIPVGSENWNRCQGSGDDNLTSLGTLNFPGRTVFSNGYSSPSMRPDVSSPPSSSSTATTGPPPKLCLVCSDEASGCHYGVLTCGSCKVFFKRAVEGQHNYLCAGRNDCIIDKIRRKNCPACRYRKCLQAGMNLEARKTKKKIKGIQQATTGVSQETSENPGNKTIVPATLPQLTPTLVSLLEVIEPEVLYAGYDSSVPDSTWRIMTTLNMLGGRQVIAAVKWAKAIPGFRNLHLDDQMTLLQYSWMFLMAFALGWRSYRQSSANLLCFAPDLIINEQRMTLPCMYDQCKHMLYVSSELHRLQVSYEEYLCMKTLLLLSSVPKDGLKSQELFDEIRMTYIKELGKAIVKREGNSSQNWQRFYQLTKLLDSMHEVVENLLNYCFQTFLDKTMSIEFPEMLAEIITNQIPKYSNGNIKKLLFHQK
Description: HFPO-DA was assessed for agonism and antagonism of transcriptional activation for estrogen (ER), androgen (AR), and glucocorticoid receptors (GR). Method details for in vitro transactivation assays for ER ([Wilson et al. 2004a]), AR ([Hartig et al. 2002], [2007]), and GR ([Conley et al. 2017]; [Medlock Kakaley et al. 2018]) have been previously reported. Briefly, for ER activity we utilized the stably transfected T47D-KBluc cell line [publicly available via American Type Culture Collection (ATCC); CRL-2865] according to protocols provided by ATCC with the modification of Dulbecco’s Modified Eagle Media (DMEM) as the cell culture media instead of Roswell Park Memorial Institute (RPMI) media. […] All assays were run in 96-well plates and luminescence was detected using a BMG Fluostar Omega luminometer (BMG Labtech) following 24-h exposure. […] Cellular cytotoxicity across the dosing range was determined for CV-1 cells utilizing the 3-(4,5-dimethylthiazol-2-yl)-2,5-diphenyltetrazolium bromide (MTT) dye ([Mosmann 1983]). HFPO-DA was analyzed using n=2–3 biological replicate assay plates (i.e., unique cell passages) with four technical replicates per treatment per plate. […]

O=C(O)C(F)(OC(F)(F)C(F)(F)C(F)(F)F)C(F)(F)F (stereo not drawn) [HFPO-DA, Hexafluoropropylene oxide dimer acid]
half-life [1]: ~5 h | glucocorticoid receptor agonism ([2]; 100 pM to 100 μM): no androgen or glucocorticoid receptor agonism | glucocorticoid receptor antagonism, reduction in luciferase expression ([2]; 100 μM, versus 1 nM Dex): 28±3%
